The results in this text go back to EP0265388A1, “Pyrrole derivatives, therapeutic compositions containing them and their use” (CIBA-GEIGY AG, priority 1986, dated 1988).

Series [1] can be described thus: Three-centre double-blind study in inpatients. It is filed as in vivo, Menschen. From the text: Ueberraschend ist also die Tatsache, dass das anxiolytische Profil dieses Wirkstoffs auch bei nicht-betarezeptorenblockierend wirkenden Dosierungen sowohl im Tiermodell als auch am Menschen überaus ausgeprägt ist. Letzteres bestätigen Untersuchungen an stationären Patienten.
Entsprechendes ist bei der Verwendung des (+)-Enantiomeren zu erwarten.

Series [2] is described as follows: Social conflict test after Jaekel (rank hierarchy). The class given is in vivo, Rhesusaffen. From the text:
Insbesondere konnten signifikante anxiolytische Effekte bei Verabreichung des Wirkstoffs in sozialen Konfliktsituationen bei Rhesusaffen festgestellt werden. Die experimentalle Grundlage für diesen Sozialkonflikt-Test analog J. Jaekel in Biologische Psychiatrie (Forschungsergebnisse), W. Kemp (Hrsg.), Springer Verlag, Heidelberg, 1986, ist die hierarchische Rangordnung bei Rhesusaffen. Der relative Rangstatus eines Tieres ist der bestimmende Faktor für interindividuelle Kommunikation, z.B. für Aggression oder wechselseitiges soziales Putzen. Normalerweise werden Tiere mit geringem Rangstatus von höher gestellten Grupenmitgliedern unterdrückt. Diese unterdrückten Tiere ziehen sich in eine soziale Isolierung zurück und vermeiden ängstlich jeden Sozialkontakt. Wiederholte Wirkstoffgaben in Dosen von 0,2 mg/kg p.o. bei Gruppen von 5 bzw. […] Diese Effekte werden als deutliche Anxiolyse angesehen.
Insbesondere konnten signifikante anxiolytische Effekte bei Verabreichung des Wirkstoffs in sozialen Konfliktsituationen bei Rhesusaffen im oben beschriebenen Sozialkonflikt-Test nach Jaekel festgestellt werden. […] Ebenso nahmen sie aktiv Kontakt auf und wurden zu Partnern beim Pflegen, obwohl sie vorher niemals Pflegepartner waren. Diese Effekte wurden sowohl bei Gruppen mit hohem Niveau an Sozialkontakten als auch bei Gruppen mit wenig Pflegepartnerschaften beobachtet. […] Wie zu erwarten wurde dieses ausgeprägte anxiolytische Profil bei den Standard-Beta-Rezeptoren-Blockern Oxprenolol nicht und bei Propanolol in weitaus geringerem Masse erst bei Beta-Rezeptoren blockierenden Dosierungen festgestellt. Dagegen weist das Racemat diesen Effekt in nicht ß-blockierend wirkenden Dosierungen auf.

Series [3] can be described thus: Geller test (foot-shock induced conflict, lever pressing for food). It is filed as in vivo, Ratten. The conditions noted are these: for anxiolytische Wirkung im Geller-Test: overall assessment. From the text: Das charakteristische anxiolytische Profil von (+)-1-Isopropylamino-3-[o-(pyrrol-1-yl)-phenoxy]-2-propanol ergibt sich beispielsweise aus den Ergebnissen des Geller-Testes, [J. Geller. Psychopharmacologia, 3, S. 374 ff. […] Bei diesem Test werden die Füsse der Verscuchstiere beim Bedienen eines Hebels zur Nahrungsfreigabe periodisch Elektroschocks ausgesetzt. Normalerweise wird nur bei Verabreichung von hohen Dosen an Anxiolytika die Reaktion auf die Bestrafung unterdrückt. Bei einer Gruppe von Ratten, die eine Dosis ab 3 mg/kg p.o. von (+)-1-lsopropylamino-3-[o-(pyrrol-1-yl)-phenoxy]-2-propanol erhalten haben, reagieren bereits ab etwa 80 % der Versuchstiere mit einem markanten Anstieg der Hebelbedienungshäufigkeit während der Schockphase.
Bei einer Gruppe von 29 Ratten, die eine Dosis von 20 mg/kg p.o. von 1-lsopropylamino-3-[o-(pyrrol-1-yl)-phenoxy]-2-propanol erhalten haben, reagieren bereits 50 % der Versuchstiere mit einem markanten Anstieg der Hebelbedienungshäufigkeit während der Schockphase, wobei der Anstieg bei einzelnen Tieren 300 % betrug.

The nature of series [4]: Delayed-Matching-to-Sample test after Harlow, double-blind against placebo. It is filed as in vivo, Rhesusaffen. From the text: In Testmodellen an Rhesusaffen sowie an Ratten konnten weiterhin eine zusätzliche nootrope und antidepressive Wirkungskomponente festgestellt werden. […] F. Harlow et al., J. Comp. Physiol. Psychol. […] Dieser bedeutet diejenige Zeitverzögerung in Sekunden, nach der ein Affe einen Diskriminationserfolg von < 75 % hat. Weiterhin konnten die Vorzögerungszeiten für den Defizitbereich um durchschnittlich 20 Sekunden erhöht werden. Neben diesen nootropen Effekten konnten In diesem Test auch antidepressive Eigenschaften beobachtet werden. […] Die nootrope bzw. antidepressive Wirkungskomponente konnten ebenfalls bei Untersuchungen mit Ratten manifestiert werden. So wurden in einem komplizierten Tieflabyrinth analog dem Modell von J.B. Watson, Animal Education, Contrib. Psychol. Lab. Univ.

Series [5] can be described thus: Complicated deep maze after Watson. The class given is in vivo, Ratten. The source says:
In Testmodellen an Rhesusaffen sowie an Ratten konnten weiterhin eine zusätzliche nootrope und antidepressive Wirkungskomponente festgestellt werden. So bewirkte (+)-1-isopropylamino-3-[o-(pyrrol-1-yl)-phenoxy]-2-propanol in einer Doppelblindstudie bei Rhesusaffen gegen Placebo im "Delayed-Matchingto-Sample-Test" (Zeit-verzögerte-Wahl-nach-Muster) gemäss der Methodik von H. F. Harlow et al., J. Comp. Physiol. Psychol. […] Dieser bedeutet diejenige Zeitverzögerung in Sekunden, nach der ein Affe einen Diskriminationserfolg von < 75 % hat. Weiterhin konnten die Vorzögerungszeiten für den Defizitbereich um durchschnittlich 20 Sekunden erhöht werden. Neben diesen nootropen Effekten konnten In diesem Test auch antidepressive Eigenschaften beobachtet werden. […] Die nootrope bzw. antidepressive Wirkungskomponente konnten ebenfalls bei Untersuchungen mit Ratten manifestiert werden. So wurden in einem komplizierten Tieflabyrinth analog dem Modell von J.B. Watson, Animal Education, Contrib. Psychol. Lab. Univ.

Series [6] in a line: Inhibition of hyperactivity of rats kept in isolation (locomotor and exploratory behaviour, after Weinstock). The class given is in vivo, Ratten. To be noted: isolated rats. As to the method:
Das charakterische anxiolytische Profil von 1-Isopropylamino-3-[o-(pyrrol-1-yl)-phenoxyj-2-propanol ergibt sich beispielsweise aus der Hemmung der Hyperaktivität von Ratten, die in Isolation gehalten werden, gemessen an ihrem lokomotorischen und exploratorischen Verhalten, wobei maximale Effekte bei einer Dosierung von 0,01-0,1 mg/kg p.o. erzielt werden [analog der Methodik von R. Weinstock et al., Psychopharmacologia 30, 241ff. (1973). Die Hyperaktivität von isoliert gehaltenen Ratten konnte dagegen im Falle des Propranolols erste bei einer Dosis von 0,3 mg/kg p.o. maximal gehemmt werden.

Series [7] has as its system präsynaptischen Serotonin-1 B-Rezeptors (5-HTIB). Description: Antagonism at the presynaptic serotonin 1B receptor. The conditions noted are these: for Selektivität (5-HT1B gegenüber 5-HT1A): compared with the racemate.
Series [8] relates to stratialer Dopamin-Rezeptoren. In words: In vivo 3H-spiperone binding screening model after Bischoff. To be noted: rats. Details: species or system Ratten. From the text: Ferner bewirkt (+)-1-Isopropylamino-3-[o-(pyrrol-1-yl)-phenoxy]-2-propanol an Ratten Im Screening-Modell nach S. Bischoff et al., Europ.
The mark [9] stands for this setting: repeated doses of 0,1-0,3 mg/kg p.o., groups of 7 monkeys.
The mark [10] stands for this setting: repeated doses of 0,2 mg/kg p.o., groups of 5 or 7 monkeys.

Molecules are shown by their SMILES.

Turning to `CC(C)NCC(O)COc1ccccc1-n1cccc1` (racemic) [1-Isopropylamino-3-[o-(pyrrol-1-yl)-phenoxy]-2-propanol], the “cardiovaskuläre Effekte (ß-Blockade)” value in series [1] (humans, low daily doses such as 2 mg and 4 mg p.o.) is reported as “keine cardiovaskulären Effekte”. Also, in series [1] (more than 100 inpatients, daily dose 2 mg p.o. compared with daily dose 4 mg p.o.), the “anxiolytische Effekte” value is recorded as “signifikante, mindestens ebenso potente anxiolytische Effekte”. In series [2] (setting [9]), the “Sozialkontakte der rangniedrigsten Affen” value is listed as “Zunahme der Sozialkontakte” and the “ängstliches Verhaltensmuster der Affen, die in der Rangordnung am niedrigsten eingeordnet sind” value is listed as “signifikanten Reduktion des ängstlichen Verhaltensmuster”. Moreover, the “Versuchstiere mit einem markanten Anstieg der Hebelbedienungshäufigkeit während der Schockphase” value in series [3] (group of 29 rats, 20 mg/kg p.o.) was 50%. Further, the “Anstieg der Hebelbedienungshäufigkeit bei einzelnen Tieren” value in series [3] (rats, 20 mg/kg p.o., shock phase) was 300%. Further, the “anxiolytische Wirkung im Geller-Test” value in series [3] (rats) is listed as “starkes Anxiolytikum”. In addition, the “nootrope und antidepressive Eigenschaften” value in series [4] (racemate, at the doses used) is reported as “keine aussagefähigen Beobachtungen”. The “nootrope und antidepressive Eigenschaften” value in series [5] (racemate, at the doses used) is reported as “keine aussagefähigen Beobachtungen”. The “Dosierung, bei der maximale Effekte (Hemmung der Hyperaktivität) erzielt werden” value in series [6] is on record as 0,01-0,1 mg/kg p.o. In series [7], the “Antagonismus am präsynaptischen Serotonin-1 B-Rezeptor” value was “potenter selektiver Antagonist”.

Take `CC(C)NCC(O)COc1ccccc1-n1cccc1` (single isomer, unassigned; (+)) [(+)-1-Isopropylamino-3-[o-(pyrrol-1-yl)-phenoxy]-2-propanol]: in series [8], the “^3H-Splperon-Bindung stratialer Dopamin-Rezeptoren” value is on record as “dosisabhängig Erhöhungen”. For the same compound, the “cardiovaskuläre Effekte (ß-Blockade)” value in series [1] (expected for the (+)-enantiomer, not tested) was “Entsprechendes”. For the same compound, in series [2] (setting [10]), the “Sozialkontakte der rangniedrigsten Affen” value is reported as “nahmen sie aktiv soziale Kontakte auf” and the “ängstliches Verhaltensmuster der Affen, die in der Rangordnung am niedrigsten eingeordnet sind” value was “signifikanten Reduktion”. Moreover, the “Versuchstiere mit einem markanten Anstieg der Hebelbedienungshäufigkeit während der Schockphase” value in series [3] (rats, dose from 3 mg/kg p.o.) is reported as around 80%. Moreover, the “anxiolytische Wirkung im Geller-Test” value in series [3] (rats) is “starkes Anxiolytikum”. The “Erfolgsrate im Defizitbereich” value in series [4] (1 mg/kg p.o., against placebo, deficit range = delay after which discrimination success is < 75 %) was “signifikant erhöhte Erfolgsrate”. Besides, the “Motivation und Antrieb (antidepressive Eigenschaften)” value in series [4] (rhesus monkeys) was “deutliche Motivations-und Antriebssteigerungen”. Moreover, in series [4] (rhesus monkeys, average increase), the “Erhöhung der Vorzögerungszeiten für den Defizitbereich” value came out at 20 Sekunden. In series [5] (rats), the “Orientierungsleistungen (Fehlerquote; nootrope Wirkung)” value is recorded as “deutliche Verbesserung der Orientierungsleistungen”. In addition, the “Laufzeiten vom Start zum belohnten Ziel” value in series [5] (rats, compared with placebo animals) is recorded as “signifikant verkürzten Laufzeiten”.

`C=CCOc1ccccc1OCC(O)CNC(C)C` (stereo not shown) [Oxprenolol, reference compound]: the “Sozialkontakte von Affen mit geringer Rangordnung” value in series [2] (0,3-3,0 mg/kg p.o.) is “keine Steigerung der Sozialkontakte”. The “Selektivität (5-HT1B gegenüber 5-HT1A)” value in series [7] is given as “weniger selektiv”.

Turning to `CC(C)NCC(O)COc1cccc2ccccc12` (stereo not shown) [Propranolol, reference compound], the “Sozialkontakte der Rhesusaffen mit niedrigem Rangstatus” value in series [2] (0,5-10,0 mg/kg p.o.) is reported as “relativ wenig beeinflusst”. Moreover, the “Verhaltensänderung im Fussschocktest” value in series [3] (rats, 20 mg/kg p.o.) was “keiner signifikanten Verhaltensänderung”. Further, the “Dosierung, bei der maximale Effekte (Hemmung der Hyperaktivität) erzielt werden” value in series [6] was 0,3 mg/kg p.o. The “Selektivität (5-HT1B gegenüber 5-HT1A)” value in series [7] was “weniger selektiv”.
